Data set [1] in a line: Glass transition temperature by DSC. The class given is physicochemical. The settings on record: measured by DSC. The method, then: Tack was measured by modifications to the […] standard. On an Instron® load frame, the tackifier to be tested was applied to a glass slide at a thickness of 0.1 mm. The slide was then clamped to a flat surface and, perpendicularly, a type 304 stainless steel probe measuring 5 mm in diameter, with a 90° polished tip was place above the slide. The probe was then lowered at a rate of 0.5 mm sec^−1 and contacted the surface at an average force of 1.5 N. The probe was then held on the surface for 1.0 sec and then raised at a rate of 0.5 mm sec^−1. Tack was measured as the maximum force required to remove the probe from the surface of the tackifier. Tg was measured by DSC.

The nature of data set [2]: Water solubility of tackifiers. The class given is physicochemical. An excerpt:
Altering the identity of the acid anhydride altered tackifier properties.

Regarding `O=C(O)CCC(=O)O[C@@H]1CO[C@H]2[C@@H]1OC[C@H]2OC(=O)CCC(=O)O` [5a], the Tg in data set [1] was −2 °C.
`O=C(O)C=CC(=O)O[C@H]1CO[C@H]2[C@@H]1OC[C@H]2OC(=O)C=CC(=O)O` [3c] showed a Tg in data set [1] of 16 °C.
Still for that read-out and setting: the same measure for `O=C(O)CCCC(=O)O[C@@H]1CO[C@H]2[C@@H]1OC[C@H]2OC(=O)CCCC(=O)O` [5b]: −26 °C.
`O=C(O)CCC(=O)OC1COC2C(OC(=O)CCC(=O)O)COC12` (stereo not shown) [3a]: the “Water solubility (in words)” value in data set [2] is “substantially water-soluble”. The compound also showed a Tg in data set [1] of −2 °C.
On to `O=C(O)CCCC(=O)O[C@H]1CO[C@H]2[C@@H]1OC[C@H]2OC(=O)CCCC(=O)O` [3b], for which, in data set [2], the “Water solubility (in words)” value is “substantially water-insoluble”. Further, the Tg in data set [1] is −24 °C.
